Test results published in patent US9174996B2, “Protein kinase inhibitors” (Astar Biotech LLC, priority 2012, dated 2015).

How the values were obtained:
[1] = target: Ba/F3 cells expressing native BCR-ABL (Homo sapiens, UniProt P00519); test: MTT cell viability assay, Experiment 3; type: cell-based, murine; conditions: Mean ± S.E.M, two independent experiments, read-out: IC50 cell viability, Ba/F3 cells Native BCR-ABL
Description: (§1) This study evaluated the effect of the pure optical isomers on human leukemia cell viability in vitro. […] Two BCR-ABL-positive human leukemia cell lines, K562 and KU812, were used in this study. Besides, Ba/F3 cell transfectants expressing native or T315I BCR-ABL, whose viability is dependent on ectopically expressed BCR-ABL, were also used in this work. Ba/F3 cells expressing BCR-ABL^T315I were used for testing the efficiency of tested compounds on point mutation BCR-ABL^T315I, which cause drug resistance to Imatinib (Gleevec). U937 and JURKAT, two BCR-ABL-negative human leukemia cell lines, were employed to test the selectivity of tested compounds.
(§2) Cells were seeded in 24-well plates, and treated with drugs at corresponding concentrations. Cell viability was measured using a MTT (3-(4,5-dimethylthiazol-2-yl)-2,5-diphenyltetrazolium bromide)-based colorimetric assay with a 96-well plate reader. IC50 values were calculated using the mean of two independent experiments.

[2] = target: Ba/F3 cells expressing BCR-ABL T315I (Homo sapiens, UniProt P00519, T315I, cells depend on it); test: MTT cell viability assay, Experiment 3; type: cell-based, murine; conditions: Mean ± S.E.M, two independent experiments, read-out: IC50 cell viability, Ba/F3 cells T315I BCR-ABL
Description: as §1, §2

KU812 = test: MTT cell viability assay, Experiment 3; type: cell-based; conditions: Homo sapiens, KU812; MTT, Mean ± S.E.M, two independent experiments; read-out: IC50 cell viability, CML leukemia cells KU812
Description: (§3) This study evaluated the effect of the pure optical isomers on human leukemia cell viability in vitro. Ponatinib was used as the positive control. Two BCR-ABL-positive human leukemia cell lines, K562 and KU812, were used in this study. Besides, Ba/F3 cell transfectants expressing native or T315I BCR-ABL, whose viability is dependent on ectopically expressed BCR-ABL, were also used in this work. Ba/F3 cells expressing BCR-ABL^T315I were used for testing the efficiency of tested compounds on point mutation BCR-ABL^T315I, which cause drug resistance to Imatinib (Gleevec). U937 and JURKAT, two BCR-ABL-negative human leukemia cell lines, were employed to test the selectivity of tested compounds.
as §2

K562 = test: MTT cell viability assay, Experiment 3; type: cell-based; conditions: Homo sapiens, K562; MTT, Mean ± S.E.M, two independent experiments; read-out: IC50 cell viability, CML leukemia cells K562
Description: as §3, §2

JURKAT = test: MTT cell viability assay, Experiment 3; type: cell-based; conditions: Homo sapiens, MTT, Mean ± S.E.M, two independent experiments, read-out: IC50 cell viability, Non-CML leukemia cells JURKAT
Description: as §3, §2

U937 = test: MTT cell viability assay, Experiment 3; type: cell-based; conditions: Homo sapiens, U-937; MTT, Mean ± S.E.M, two independent experiments; read-out: IC50 cell viability, Non-CML leukemia cells U937
Description: as §3, §2

K562 cells = test: Cell death assay, Experiment 1 (live cells counted by trypan blue); type: cell-based; conditions: Homo sapiens, 100 nM, 48 hours, read-out: % live cells (vs control)

| SMILES | melting point | GI50 [1] | GI50 [2] | IC50 (KU812) | IC50 (K562) | IC50 (JURKAT) | IC50 (U937) | viability at 0.1 µM (K562 cells) |
| --- | --- | --- | --- | --- | --- | --- | --- | --- |
| CN1CCN(C2CC(F)(F)c3cc(NC(=O)c4ccc(Cl)c(C#Cc5cnc6cccnn56)c4)ccc32)CC1 (racemic) [Compound 38, N-(1,1-difluoro-2,3-dihydro-3-(4-methylpiperazin-1-yl)-1H-indan-6-yl)-3-(2-(imidazo[1,2-b]pyridazin-3-yl)ethynyl)-4-chlorobenzamide] | 140 to 142 °C | 4.9 ± 2.1 nM | 10.1 ± 0.7 nM | 0.4 ± 0.1 nM | 0.8 ± 0.1 nM | > 1000 nM | > 1000 nM | – |
| CN1CCN(C2CC(F)(F)c3cc(NC(=O)c4ccc(F)c(C#Cc5cnc6cccnn56)c4)ccc32)CC1 (racemic) [Compound 39, N-(1,1-difluoro-2,3-dihydro-3-(4-methylpiperazin-1-yl)-1H-indan-6-yl)-3-(2-(imidazo[1,2-b]pyridazin-3-yl)ethynyl)-4-fluorobenzamide] | 118 to 121 °C | 3.6 ± 0.7 nM | 13 ± 0.9 nM | 0.5 ± 0.3 nM | 0.8 ± 0.2 nM | > 1000 nM | 810 ± 39.2 nM | – |
| CN1CCN([C@@H]2CC(F)(F)c3cc(NC(=O)c4ccc(Cl)c(C#Cc5cnc6cccnn56)c4)ccc32)CC1 (single isomer, unassigned) [38-(R)] | – | 78.2 ± 2.3 nM | > 100 nM | 11.9 ± 0.3 nM | 24.9 ± 9.9 nM | > 1000 nM | > 1000 nM | – |
| CN1CCN([C@@H]2CC(F)(F)c3cc(NC(=O)c4ccc(F)c(C#Cc5cnc6cccnn56)c4)ccc32)CC1 (single isomer, unassigned) [39-(R)] | – | 47.6 ± 4.5 nM | > 100 nM | 3.6 ± 0.8 nM | 6.4 ± 1.3 nM | > 1000 nM | > 1000 nM | – |
| CN1CCN([C@H]2CC(F)(F)c3cc(NC(=O)c4ccc(F)c(C#Cc5cnc6cccnn56)c4)ccc32)CC1 (single isomer, unassigned) [39-(S)] | – | 2.3 ± 0.5 nM | 6.5 ± 1.2 nM | 0.2 ± 0.1 nM | 0.3 ± 0.2 nM | > 1000 nM | > 1000 nM | – |
| Cc1ccc(C(=O)Nc2ccc3c(c2)C(F)(F)C[C@H]3N2CCN(C)CC2)cc1C#Cc1cnc2cccnn12 [36-(R), (R)—N-(1,1-difluoro-2,3-dihydro-3-(4-methylpiperazin-1-yl)-1H-indan-6-yl)-3-(2-(imidazo[1,2-b]pyridazin-3-yl)ethynyl)-4-methylbenzamide] | – | 31.2 ± 3.8 nM | > 100 nM | 2.7 ± 0.1 nM | 3.6 ± 0.1 nM | > 1000 nM | > 1000 nM | – |
| Cc1ccc(C(=O)Nc2ccc3c(c2)C(F)(F)C[C@H]3N2CCN(C)CC2)cc1C#Cc1cnc(NC2CC2)nc1 [37-(R), (R)-3-(2-(2-(Cyclopropylamino)pyrimidin-5-yl)ethynyl)-N-(1,1-difluoro-2,3-dihydro-3-(4-methylpiperazin-1-yl)-1H-indan-6-yl)-4-methylbenzamide] | – | 62.5 ± 6.9 nM | > 100 nM | 5.2 ± 0.2 nM | 10.4 ± 1.5 nM | 400 ± 64.9 nM | 465 ± 9.7 nM | – |
| Cc1ccc(C(=O)Nc2ccc3c(c2)C(F)(F)C[C@@H]3N2CCN(C)CC2)cc1C#Cc1cnc(NC2CC2)nc1 [37-(S), (S)-3-(2-(2-(Cyclopropylamino)pyrimidin-5-yl)ethynyl)-N-(1,1-difluoro-2,3-dihydro-3-(4-methylpiperazin-1-yl)-1H-indan-6-yl)-4-methylbenzamide] | – | 3.5 ± 0.9 nM | 12.4 ± 0.4 nM | 0.2 ± 0.1 nM | 0.6 ± 0.1 nM | 280 ± 20 nM | 165 ± 15 nM | – |
| Cc1cn(-c2cc(NC(=O)c3ccc(C)c(C#Cc4ccc(NC5CCC5)nn4)c3)cc(C(F)(F)F)c2)cn1 [Compound 24, 3-(2-(6-(Cyclobutylamino)pyridazin-3-yl)ethynyl)-4-methyl-N-(3-(4-methyl-1H-imidazol-1-yl)-5-(trifluoromethyl)phenyl)benzamide] | 223 to 225 °C | – | – | – | – | – | – | 16.4% |
| Cc1cn(-c2cc(NC(=O)c3ccc(Cl)c(C#Cc4ccc(NC5CC5)nn4)c3)cc(C(F)(F)F)c2)cn1 [Compound 26, 4-Chloro-3-(2-(6-(cyclopropylamino)pyridazin-3-yl)ethynyl)-N-(3-(4-methyl-1H-imidazol-1-yl)-5-(trifluoromethyl)phenyl)benzamide] | 213 to 215 °C | – | – | – | – | – | – | 18.3% |
| Cc1cn(-c2ccc(NC(=O)c3ccc(C)c(C#Cc4cnc(NC5CC5)nc4)c3)cc2C(F)(F)F)cn1 [Compound 28, 3-(2-(2-(Cyclopropylamino)pyrimidin-5-yl)ethynyl)-4-methyl-N-(4-(4-methyl-1H-imidazol-1-yl)-3-(trifluoromethyl)phenyl)benzamide] | 131 to 133 °C | – | – | – | – | – | – | 12.7% |
| Cc1cn(-c2ccc(NC(=O)c3ccc(Cl)c(C#Cc4cnc(NC5CC5)nc4)c3)cc2C(F)(F)F)cn1 [Compound 29, 4-Chloro-3-(2-(2-(cyclopropylamino)pyrimidin-5-yl)ethynyl)-N-(4-(4-methyl-1H-imidazol-1-yl)-3-(trifluoromethyl)phenyl)benzamide] | 141 to 143 °C | – | – | – | – | – | – | 5.87% |
| Cc1cn(-c2ccc(NC(=O)c3ccc(Cl)c(C#Cc4cnc5cccnn45)c3)cc2C(F)(F)F)cn1 [Compound 31, 4-Chloro-3-(2-(imidazo[1,2-b]pyridazin-3-yl)ethynyl)-N-(4-(4-methyl-1H-imidazol-1-yl)-3-(trifluoromethyl)phenyl)benzamide] | 153 to 155 °C | – | – | – | – | – | – | 14.4% |
| Cc1cn(-c2cc(NC(=O)c3ccc(Cl)c(C#Cc4cnc5cccnn45)c3)cc(C(F)(F)F)c2)cn1 [Compound 32, 4-Chloro-3-(2-(imidazo[1,2-b]pyridazin-3-yl)ethynyl)-N-(3-(4-methyl-1H-imidazol-1-yl)-5-(trifluoromethyl)phenyl)benzamide] | 153 to 154 °C | – | – | – | – | – | – | 9.57% |
| Cc1cn(-c2cc(NC(=O)c3ccc(Cl)c(C#Cc4cnc(NC5CC5)nc4)c3)cc(C(F)(F)F)c2)cn1 [Compound 33, 4-Chloro-3-(2-(2-(cyclopropylamino)pyrimidin-5-yl)ethynyl)-N-(3-(4-methyl-1H-imidazol-1-yl)-5-(trifluoromethyl)phenyl)benzamide] | 163 to 165 °C | – | – | – | – | – | – | 7.97% |
| CN1CCN(Cc2ccc(NC(=O)N3CCCC(C#Cc4cnc5cccnn45)C3)cc2C(F)(F)F)CC1 (centres unmarked) [Compound 34, 3-(2-(Imidazo[1,2-b]pyridazin-3-yl)ethynyl)piperidine-N-(4-((4-methylpiperazin-1-yl)methyl)-3-(trifluoromethyl)phenyl)-1-carboxamide] | 65 to 70 °C | – | – | – | – | – | – | 12% |
| CN1CCN(Cc2ccc(NC(=O)N3CCC(C#Cc4cnc5cccnn45)C3)cc2C(F)(F)F)CC1 (centres unmarked) [Compound 35, 3-(2-(Imidazo[1,2-b]pyridazin-3-yl)ethynyl)pyrrolidine-N-(4-((4-methylpiperazin-1-yl)methyl)-3-(trifluoromethyl)phenyl)-1-carboxamide] | 83 to 85 °C | – | – | – | – | – | – | 11.3% |
